Reference: patent US4197310A, “Thiophenepropionitriles” (American Cyanamid Company, priority 1979, dated 1980)

Experiments:
[1] = tested on: Carrageenin-Induced Edema; assay: Carrageenin-induced edema in the rat; format: in vivo, rat (Royal Hart, Wistar strain); conditions: oral gavage, 5 hours after drug, 4 hours after carrageenin, dose not given, * p = <.05 by t test
Experimental: (A) Carrageenin-induced edema in the rat
In determining the acute anti-inflammatory activity of the cis-2-[2(or 3)-thenoyl]-3-hydroxy-2-alkenenitriles of the present invention, Royal Hart, Wistar strain rats, ranging in weight from 80 to 90 grams were used. The rats were fasted overnight prior to dosing but had free access to water. The test compounds were administered in aqueous suspension, by gavage, in a volume of 1.7 ml. per 50 grams of rat [corresponds to hydration volume used by Winter, et al., Proc. Soc. […] The phlogistic agent used was carrageenin prepared as a sterile 1% suspension in 0.9% aqueous sodium chloride for routine testing. A volume of 0.05 ml. was injected through a 26 gauge needle into the plantar tissue of the right hind paw. Measurements were made 5 hours after drug administration (4 hours after carrageenin challenge). Volumes of both the normal and carrageenin inflammed feet were determined. The difference between the two measurements is considered to be the increased edema due to the carrageenin administration. Results are expressed as a C/T efficacy ratio (edema of control animals/edema of treated animals).

[2] = tested on: Adjuvant Induced Arthritis in Rats; assay: Adjuvant-induced arthritis in the rat; format: in vivo, rat (Royal Hart, Wistar strain)
Experimental: (B) Adjuvant-induced arthritis in the rat […] Groups of three Royal Hart, Wistar strain rats weighing 200±10 g. each were injected intradermally in the right hind paw with Freund's adjuvant (dried human tubercle bacilli in a mineral oil vehicle) at a dose of 2 mg./kg. of body weight. The test compounds were administered orally in a 1.5% starch vehicle at various doses once daily on days 0 to 13 post challenge. Control rats were treated in a similar manner, but given only starch vehicle. On the 14th and 21st day post challenge the diameter of the injected paw was measured by micrometer caliper. The volume of inflamed paws were estimated from these measurements and the effects of each compound are expressed as percent inhibition of swelling as compared to controls. Table II records the results of these tests conducted with representative compounds of this invention and known anti-inflammatory agents. The active compounds of this invention suppress the progression of the arthritis and associated joint deterioration.

[3] = oral 50 mg./kg. daily days 0 to 13, * (where printed) p = <.05 by t test
[4] = oral 50 mg./kg. daily days 0 to 13, no asterisk
[5] = oral 25 mg./kg. daily days 0 to 13, * p = <.05 by t test

C/C(O)=C(\C#N)C(=O)c1cccs1 [Cis-2-(2-thenoyl)-3-hydroxycrotononitrile]
C/T Ratio (edema of control animals/edema of treated animals) [1]: 2.04 | % Inhibition of Swelling, Day 14 [2, 3]: 42% | % Inhibition of Swelling, Day 21 [2, 4]: 6%

C/C(O)=C(\C#N)C(=O)c1ccsc1 [Cis-2-(3-thenoyl)-3-hydroxycrotononitrile]
C/T Ratio (edema of control animals/edema of treated animals) [1]: 2.42 | % Inhibition of Swelling, Day 14 [2, 3]: 38% | % Inhibition of Swelling, Day 21 [2, 4]: 19%

C/C(O)=C(\C#N)C(=O)c1ccc(Cl)s1 [Cis-2-(5-chloro-2-thenoyl)-3-hydroxycrotononitrile]
% Inhibition of Swelling, Day 14 [2, 5]: 49% | % Inhibition of Swelling, Day 21 [2, 5]: 31%
